Assay results as given in US5177082A, “Huperzines and analogs” (priority 1990, dated 1993).
Where “and” joins values, the source holds several entries; their conditions need not be identical. Identical values can stand only once. Entries after “also recorded” stand apart in the source; their conditions may differ.

Legend:
[1] = test system: Sciatic Nerve/Tibialis Muscle Preparation; experiment: Anesthetized rabbit sciatic nerve/tibialis muscle preparation; type: in vivo; conditions: rabbits
Procedure: Anesthesized Rat and Rabbit Sciatic Nerve/Tibialis Muscle Preparation
Anesthesia was produced in rats by ip injections of 30 mg/kg of pentobarbital and in rabbits by iv injections of 1 g/kg of urethane. Electric stimulation of the periphery of the sciatic nerve (5-10 V, 0.5 ms, 1 c/10 s) caused tibialis contraction which was recorded on smoked paper.

dogs = experiment: Subacute toxicity in dogs; type: in vivo, dog
Description: Rabbits and dogs: there were 20 rabbits divided into four groups. […] The control group was given im injections of distilled water. […] When the time arrived, the rabbits and dogs were dissected. The routine blood tests glutamic-pyruvic transaminase, zinc turbidity, urea nitrogen and creatinine were all normal. […] The stimulation of the latter was even more outstanding.

patients = experiment: Clinical side effects in patients with myasthenia gravis; type: in vivo, human
Procedure: (§1) Patients affected with myasthenia gravis (MG) with typical clinical symptoms which improved after using neostigmine were the subjects for testing and verification. […] It was generally used for at least ten days and each dosage was 0.4-0.5 mg. […] The injections were all given in the morning and on the morning prior to the injections anticholinesterase drugs were discontinued. Neither the patients nor the doctors knew which drug was being injected. Later, the symptoms, the duration of the improvements, if any, which were obtained by the drugs and the side effects were recorded. Based on these factors, the relative merits of the two drugs were established.

myasthenia gravis = experiment: Clinical curative effects in 128 cases with myasthenia gravis; type: in vivo, human
Procedure: 128 patients with correctly diagnosed myasthenia gravis were used in the trial.
as §1
(+) (++) and (+++) was used as the standard for the seriousness of the symptoms, (+++) was the most serious.
1. Prolapse of eyelids: the tear width of the eye after use of the drug was measured. If there was an increase of 0.2 cm above that before use of the drug, then the effect was "+", if the increase was 0.4 cm then the effect was "++" and if the increase was 0.6 cm then the effect was "+++".
2. Impairment to eyeball activity: when the eyeball was basically fixed and immovable then it was "+++", those who had reoccuring major complaints and basically normal activities were "+" and those in an intermediate state were "++".
3. Difficulties in swallowing: when swallowing was still possible but there was a feeling of difficulty or there was slowing of the speed of the intake of food then the patient was treated as "+"; when the patient could swallow but it was very slow then the patient was "++"; when the patient was basically unable to swallow the rating was "+++".
4. Systemic myasthenia: patients who were able to walk but felt very exhausted were "+"; patients who were able to stand up and walk with difficulty a short distance in the ward or corridor were "++"; and patients who could not get out of bed were "+++".

For `C/C=C1\[C@H]2C=C(C)C[C@]1(N)c1ccc(=O)[nH]c1C2` [Huperzine A, (5R, 9R, 11E)-5-amino-11-ethylidene-5,6,9,10-tetrahydro-7-methyl-5,9-methanocycloocta[b]pyridin-2(1H)-one], the minimal effective dose ([1]; Oryctolagus cuniculus, iv, read-out: Lowest Effective Dosage for Enhancing Muscle Contraction) was 0.03 mg/kg, the “Strength of Effect” value ([1]; galanthamine = 1.0) was 16.6 and the “effect on electrically stimulated muscle contraction” value ([1]; iv (Huperzine A 30 μg/kg)) was “enhancement of the amplitude of the electrically stimulated muscle contraction”. The “Strength of Effect” value ([1]; physostigmine = 1.0) was 4, the “microscopic examination, heart” value (dogs; dogs) was “light fat infiltration” and the “routine blood tests, glutamic-pyruvic transaminase, zinc turbidity, urea nitrogen and creatinine” value (dogs; dogs) was “all normal”. The symptoms (dogs; dogs, 0.6 mg/kg im, 180 days) was “noticeable whole body muscle fiber twitching”, the ECG (dogs; dogs, im 180 days) was “no drug induced abnormalities” and the “pathological changes of internal organs” value (dogs; dogs, six months, 90 times (MG) / 750 times (senile dementia) clinical dosage) was “no noticeable pathological changes of internal organs were observed”. The abnormalities (dogs; dogs, small dosages (0.3 mg/kg im), 180 days) was “No abnormalities were observed”, the “microscopic examination, cerebral cortex” value (dogs; each dosage group of dogs) was “cerebral spongiocyte growth and myophagia” and the nausea vs neostigmine (patients; X^2 =15, P<0.001) was “more apt to cause nausea than was neostigmine”. For the same compound, the “Abdominal pains, %” value (patients; control group) was 5.9%, the “Abdominal pains, number of times” value (patients; control group) was 21 and the “Blurred vision, %” value (patients; control group) was 3.2%. The “Blurred vision, number of times” value (patients; control group) was 11, the “Changes in the rhythm of the heart, %” value (patients; control group) was 3.1% and the “Changes in the rhythm of the heart, number of times” value (patients; control group) was 11. For the same compound, the “Disturbed sleep, %” value (patients; control group) was 0.8%, the “Disturbed sleep, number of times” value (patients; control group) was 3 and the “Dizziness, %” value (patients; control group) was 20.3%. The “Dizziness, number of times” value (patients; control group) was 72, the “Drooling, %” value (patients; control group) was 3.5% and the “Drooling, number of times” value (patients; control group) was 9. For the same compound, the “Increase in the number of bowel movements, %” value (patients; control group) was 2.8%, the “Increase in the number of bowel movements, number of times” value (patients; control group) was 10 and the “Muscle bundle quivering, %” value (patients; control group) was 10.4%. For the same compound, the “Muscle bundle quivering, number of times” value (patients; control group) was 37, the “Myosis, %” value (patients; control group) was 3.0% and the “Myosis, number of times” value (patients; control group) was 13. The “Nausea, %” value (patients; control group) was 12.9%, the “Nausea, number of times” value (patients; control group) was 46 and the “Perspiring, %” value (patients; control group) was 7.0%. For the same compound, the “Perspiring, number of times” value (patients; control group) was 25, the “Tinnitus, %” value (patients; control group) was 3.7% and the “Tinnitus, number of times” value (patients; control group) was 13. For the same compound, the “Vomiting, %” value (patients; control group) was 2.8%, the “Vomiting, number of times” value (patients; control group) was 10 and the “cases with side effects” value (patients; control patients, 69 cases) was 45 cases. The “cases with side effects, %” value (patients; control patients, 69 cases, X^2 =3.58, P>0.05) was 65.21%, the “side effects other than nausea vs neostigmine” value (patients; muscle bundle quivering, dizziness, perspiring, blurred vision) was “lower side effects for each of the other items than neostigmine; also recorded: statistically lower than neostigmine; also recorded: lower side effects in all other areas than neostigmine” and the “Abdominal pains, %” value (patients; noncontrol group, 128 cases) was 6.5%. The “Abdominal pains, number of times” value (patients; noncontrol group, 128 cases) was 80, the “Blurred vision, %” value (patients; noncontrol group, 128 cases) was 1.8% and the “Blurred vision, number of times” value (patients; noncontrol group, 128 cases) was 22. For the same compound, the “Changes in the rhythm of the heart, %” value (patients; noncontrol group, 128 cases) was 1.0%, the “Changes in the rhythm of the heart, number of times” value (patients; noncontrol group, 128 cases) was 13 and the “Disturbed sleep, %” value (patients; noncontrol group, 128 cases) was 0.4%. The “Disturbed sleep, number of times” value (patients; noncontrol group, 128 cases) was 5, the “Dizziness, %” value (patients; noncontrol group, 128 cases) was 8.1% and the “Dizziness, number of times” value (patients; noncontrol group, 128 cases) was 100. For the same compound, the “Drooling, %” value (patients; noncontrol group, 128 cases) was 2.0%, the “Drooling, number of times” value (patients; noncontrol group, 128 cases) was 25 and the “Increase in the number of bowel movements, %” value (patients; noncontrol group, 128 cases) was 0.5%. The “Increase in the number of bowel movements, number of times” value (patients; noncontrol group, 128 cases) was 11, the “Muscle bundle quivering, %” value (patients; noncontrol group, 128 cases) was 4.0% and the “Myosis, %” value (patients; noncontrol group, 128 cases) was 1.0%. For the same compound, the “Myosis, number of times” value (patients; noncontrol group, 128 cases) was 13, the “Nausea, %” value (patients; noncontrol group, 128 cases) was 7.8% and the “Nausea, number of times” value (patients; noncontrol group, 128 cases) was 95. For the same compound, the “Perspiring, %” value (patients; noncontrol group, 128 cases) was 4.8%, the “Perspiring, number of times” value (patients; noncontrol group, 128 cases) was 59 and the “Tinnitus, %” value (patients; noncontrol group, 128 cases) was 3.1%. The “Tinnitus, number of times” value (patients; noncontrol group, 128 cases) was 38, the “Vomiting, %” value (patients; noncontrol group, 128 cases) was 1.2% and the “Vomiting, number of times” value (patients; noncontrol group, 128 cases) was 15. For the same compound, the “initial effect within 15-30 minutes, %” value (myasthenia gravis; 127 cases) was 85.03%, the “initial effect within 15-30 minutes, No. of Cases” value (myasthenia gravis; 127 cases) was 108 cases and the “optimal curative effect within 45-60 minutes, %” value (myasthenia gravis; 127 cases) was 51.18%. The “optimal curative effect within 45-60 minutes, No. of Cases” value (myasthenia gravis; 127 cases) was 65 cases, the “time of maximal effect, longest” value (myasthenia gravis; 127 cases) was 240 min and the “time of maximal effect, shortest” value (myasthenia gravis; 127 cases) was 18 min. For the same compound, the “initial effect time, average” value (myasthenia gravis; X ± SD, 127 cases) was 21.92 ± 19.56 min and 21.92 min, the “time of maximal effect, average” value (myasthenia gravis; X ± SD, 127 cases) was 50.34 ± 25.65 min and 50.34 min and the “average action time among the 40 cases” value (myasthenia gravis; cases exceeding 6 hours) was 10.42 ± 5.80 h. For the same compound, the “longest action time among the 40 cases” value (myasthenia gravis; cases exceeding 6 hours) was 24 h, the “shortest action time among the 40 cases” value (myasthenia gravis; cases exceeding 6 hours) was 6 h and the “sustaining time of effect, shortest” value (myasthenia gravis; eye muscle type) was 0.66 h. The “action time exceeded 6 hours, %” value (myasthenia gravis; human, in vivo) was 31.64%, the “action time exceeded 6 hours, cases” value (myasthenia gravis; human, in vivo) was 40 cases and the “action time reached 4-6 hours, %” value (myasthenia gravis; human, in vivo) was 34.64%. The “action time reached 4-6 hours, cases” value (myasthenia gravis; human, in vivo) was 44 cases, the average action time (myasthenia gravis; human, in vivo) was 5.94 ± 4.92 h and the “cases with marked effects” value (myasthenia gravis; human, in vivo) was 71 cases. For the same compound, the “cases with marked effects, %” value (myasthenia gravis; human, in vivo) was 55.46%, the “initial effect time, longest” value (myasthenia gravis; im injection) was 222 min and the “physical symptom initial improvement time, longest” value (myasthenia gravis; im injection) was 3.7 h. For the same compound, the “physical symptom initial improvement time, shortest” value (myasthenia gravis; im injection) was 10 min, the “effect on myasthenia gravis condition” value (myasthenia gravis; im injection, 0.4 mg) was “effective anticholinesterase drug for treating myasthenia gravis; also recorded: able to definitely improve the myasthenia gravis condition” and the cases rated effective (myasthenia gravis; not marked) was 56 cases. The “cases rated effective, %” value (myasthenia gravis; not marked) was 43.75%, the “cases for which drug was effective” value (myasthenia gravis; of 128) was 127 cases and the “cases for which drug was effective, %” value (myasthenia gravis; of 128) was 99.21%. For the same compound, the “sustaining time of effect, longest” value (myasthenia gravis; systemic and eye muscle type) was 24 h.
